Tests used:
[1] = biological target: T1, recombinant human cIAP2-BIR3 protein (Homo sapiens, UniProt Q13489); experiment: Recombinant human c-IAP2-BIR3 biochemical assay (HTRF, peptide displacement); conditions: 3.7 nM cIAP2-BIR3, 3.7 nM AbuRPF-K(5-Fam)-NH2 peptide, read-out: Protein binding IC50 (nM) c-IAP2
T1 construct: recombinant human cIAP2-BIR3 protein; purchased Reaction biology APT-11-372
In short: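 HTRF peptide-displacement readout (ex337, em520/490 ratio) after sequential 1 h room-temperature steps: compound with 3.7 nM protein, then 3.7 nM 5-Fam-labelled AbuRPF peptide, then Tb-cryptate anti-6His antibody. Buffer pH 7.5 HEPES with NaCl, Tween-20, DTT; 10-point 4-fold dilutions from 10 uM; four-parameter logistic IC50.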

[2] = biological target: T2, recombinant human XIAP-BIR3 protein (Homo sapiens, UniProt P98170); experiment: Recombinant human XIAP-BIR3 biochemical assay (HTRF, peptide displacement); conditions: 3.7 nM XIAP-BIR3, 7.6 nM AbuRPF-K(5-Fam)-NH2 peptide, read-out: Protein binding IC50 (nM) XIAP
T2 construct: recombinant human XIAP-BIR3 protein; purchased Reaction biology APT-11-374
T2 sequence (P98170 241-356 limits assumed): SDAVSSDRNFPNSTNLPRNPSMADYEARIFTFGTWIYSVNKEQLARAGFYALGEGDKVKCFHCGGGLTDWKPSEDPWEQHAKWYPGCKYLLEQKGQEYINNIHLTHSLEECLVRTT
In short: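 HTRF peptide displacement with 7.6 nM 5-Fam-labelled AbuRPF peptide, anti-6His Tb donor and 3.7 nM recombinant XIAP-BIR3. Protein and compound (10-point, 4-fold from 10 µM) were preincubated 1 h RT in HEPES pH 7.5 buffer before each addition, each 1 h. IC50 by four-parameter fit of the 520/490 nm ratio.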

[3] = biological target: T3, recombinant human cIAP1-BIR3 protein (Homo sapiens, UniProt Q13490); experiment: Recombinant human c-IAP1-BIR3 biochemical assay (HTRF, peptide displacement); conditions: 1.2 nM cIAP1-BIR3, 3 nM AbuRPF-K(5-Fam)-NH2 peptide, read-out: Protein binding IC50 (nM) c-IAP1
T3 construct: recombinant human cIAP1-BIR3 protein; purchased Reaction biology APT-11-370
T3 sequence (Q13490 253-363 limits assumed): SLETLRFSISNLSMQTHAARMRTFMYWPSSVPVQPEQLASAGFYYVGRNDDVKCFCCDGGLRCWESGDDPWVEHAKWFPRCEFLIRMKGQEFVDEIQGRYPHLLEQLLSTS
In short: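 HTRF peptide displacement: after 1 h compound pre-incubation (max 10 uM, 4-fold dilutions, 10 points) with 1.2 nM protein in HEPES pH 7.5 buffer, 3 nM 5-Fam-labelled AbuRPF-K peptide and Tb-anti-6His were each added for 1 h at room temperature. Inhibition taken from 520/490 nm ratio, fitted four-parameter logistic for IC50.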

T1 sequence (Q13489 238-349 limits assumed): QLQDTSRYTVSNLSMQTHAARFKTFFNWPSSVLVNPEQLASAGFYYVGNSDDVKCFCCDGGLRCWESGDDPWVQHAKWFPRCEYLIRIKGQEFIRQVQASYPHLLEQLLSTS

Row | SMILES | IC50 [1] | IC50 [2] | IC50 [3]
1 | C[C@@H]1CN(CC(=O)N2c3cc(Cc4ccc(F)cc4)c(CO)nc3OC[C@@H]2C)[C@@H](CN2CCOC[C@@H]2C(F)(F)F)CN1 [Compound 91B, 1-((S)-7-(4-fluorobenzyl)-6-(hydroxymethyl)-2-methyl-2,3-dihydro-1H-pyrido[2,3-b][1,4]oxazin-1-yl)-2-((2R,5R)-5-methyl-2-(((R)-3-(trifluoromethyl)morpholino)methyl)piperazin-1-yl)ethan-1-one] | 108 nM | 543 nM | 47 nM
2 | CC(C)OC[C@@H]1COCCN1C[C@H]1CN[C@H](C)CN1CC(=O)N1c2cc(Cc3ccc(F)cc3)c(C(N)=O)nc2OC[C@@H]1C [Example 62, (S)-7-(4-fluorobenzyl)-1-(2-((2R,5R)-2-(((S)-3-(isopropoxymethyl)morpholino)methyl)-5-methylpiperazin-1-yl)acetyl)-2-methyl-2,3-dihydro-1H-pyrido[2,3-b][1,4]oxazine-6-carboxamide] | 0.73 nM | 8.1 nM | 0.33 nM
3 | C[C@@H]1CN(CC(=O)N2c3cc(Cc4ccc(F)cc4)c(C(=O)NC(C)(C)C)nc3OC[C@@H]2C)[C@@H](CN2[C@H](C)COC[C@H]2C)CN1 [Compound 120] | 0.39 nM | 6.8 nM | 0.24 nM
4 | C[C@@H]1CN(CC(=O)N2c3cc(Cc4ccc(F)cc4)c(C(=O)N4CCN(C)CC4)nc3OC[C@@H]2C)[C@@H](CN2[C@H](C)COC[C@H]2C)CN1 [Compound 104] | 0.83 nM | 18.1 nM | 0.26 nM
5 | CC(C)C[C@H]1COc2ncc(Cc3ccc(F)cc3)cc2N1C(=O)CN1C[C@@H](C)NC[C@@H]1CN1CCOC[C@H]1C [Compound 33] | 1.8 nM | 47 nM | 0.74 nM
6 | CC1CN(C(=O)CN2C[C@@H](C)NC[C@@H]2CN2CCOC[C@H]2C)c2cc(Cc3ccc(F)cc3)cnc2O1 (stereo partly drawn) [Compound 10, 1-(7-(4-fluorobenzyl)-3-methyl-2,3-dihydro-1H-pyrido[2,3-b][1,4]oxazin-1-yl)-2-((2R,5R)-5-methyl-2-(((R)-3-methylmorpholino)methyl)piperazin-1-yl)ethan-1-one] | 52 nM | 264 nM | 14 nM
7 | C[C@@H]1CN(CC(=O)N2c3cc(Cc4ccc(F)cc4)cnc3OC[C@@H]2C2CC2)[C@@H](CN2[C@H](C)COC[C@H]2C)CN1 [Compound 27, 1-((S)-2-cyclopropyl-7-(4-fluorobenzyl)-2,3-dihydro-1H-pyrido[2,3-b][1,4]oxazin-1-yl)-2-((2R,5R)-2-(((3R,5R)-3,5-dimethylmorpholino)methyl)-5-methylpiperazin-1-yl)ethan-1-one] | 0.5 nM | 14 nM | 0.2 nM
8 | C[C@@H]1CN(CC(=O)N2c3cc(Cc4ccc(F)cc4F)c(CO)nc3OC[C@@H]2C)[C@@H](CN2[C@H](C)COC[C@H]2C)CN1 [Example 60, 1-((S)-7-(2,4-difluorobenzyl)-6-(hydroxymethyl)-2-methyl-2,3-dihydro-1H-pyrido[2,3-b][1,4]oxazin-1-yl)-2-((2R,5R)-2-(((3R,5R)-3,5-dimethylmorpholino)methyl)-5-methylpiperazin-1-yl)ethan-1-one] | 0.34 nM | 7.5 nM | 0.13 nM
9 | COC[C@H]1COc2nc(CO)c(Cc3ccc(F)cc3)cc2N1C(=O)CN1C[C@@H](C)NC[C@@H]1CN1CCOC[C@H]1C [Compound 57, 1-((S)-7-(4-fluorobenzyl)-6-(hydroxymethyl)-2-(methoxymethyl)-2,3-dihydro-1H-pyrido[2,3-b][1,4]oxazin-1-yl)-2-((2R,5R)-5-methyl-2-(((R)-3-methylmorpholino)methyl)piperazin-1-yl)ethan-1-one] | 1.9 nM | 95 nM | 1.2 nM
10 | C[C@@H]1CN(CC(=O)N2c3cc(Cc4ccc(F)cc4)cnc3OC[C@H]2C)[C@@H](CN2CCOC[C@H]2C)CN1 [Compound 19B, 1-((R)-7-(4-fluorobenzyl)-2-methyl-2,3-dihydro-1H-pyrido[2,3-b][1,4]oxazin-1-yl)-2-((2R,5R)-5-methyl-2-(((R)-3-methylmorpholino)methyl)piperazin-1-yl)ethan-1-one] | 27 nM | 33 nM | 6.4 nM
11 | COCCC(=O)Nc1nc2c(cc1Cc1ccc(F)cc1)N(C(=O)CN1C[C@@H](C)NC[C@@H]1CN1[C@H](C)COC[C@H]1C)[C@@H](C)CO2 [Compound 121] | 0.27 nM | 4.2 nM | 0.2 nM
12 | C[C@@H]1CN(CC(=O)N2c3cc(Cc4ccc(F)cc4)c(C(=O)N(C)C)nc3OC[C@@H]2C)[C@@H](CN2[C@H](C)COC[C@H]2C)CN1 [Example 80, (S)-1-(2-((2R,5R)-2-(((3R,5R)-3,5-dimethylmorpholino)methyl)-5-methylpiperazin-1-yl)acetyl)-7-(4-fluorobenzyl)-N,N,2-trimethyl-2,3-dihydro-1H-pyrido[2,3-b][1,4]oxazine-6-carboxamide] | 0.3 nM | 4.9 nM | 0.22 nM
13 | C[C@@H]1CN(CC(=O)N2c3cc(Cc4ccc(F)cc4)c(C(N)=O)nc3OC[C@@H]2C)[C@@H](CN2CCOC[C@H]2C(F)F)CN1 [Example 82] | 0.73 nM | 10 nM | 0.54 nM
14 | C[C@@H]1CN(CC(=O)N2c3cc(Cc4ccc(F)cc4)c(CO)nc3OC[C@@H]2C)[C@@H](CN2CCOC[C@H]2C)CN1 [Compound 25, 1-((S)-7-(4-fluorobenzyl)-6-(hydroxymethyl)-2-methyl-2,3-dihydro-1H-pyrido[2,3-b][1,4]oxazin-1-yl)-2-((2R,5R)-5-methyl-2-(((R)-3-methylmorpholino)methyl)piperazin-1-yl)ethan-1-one] | 0.5 nM | 6 nM | 0.3 nM
15 | C[C@@H]1CN(CC(=O)N2c3cc(Cc4ccc(F)cc4)cnc3OC[C@@H]2COc2ccccc2)[C@@H](CN2CCOC[C@H]2C)CN1 [Compound 41] | 0.24 nM | 12 nM | 0.11 nM
16 | C[C@@H]1CN(CC(=O)N2c3cc(Cc4ccc(F)cc4)c(OCCO)nc3OC[C@@H]2C)[C@@H](CN2[C@H](C)COC[C@H]2C)CN1 [Compound 107] | 0.41 nM | 4.4 nM | 0.23 nM
17 | C[C@@H]1CN(CC(=O)N2CCOc3ncc(Cc4ccc(F)cc4)cc32)[C@@H](CN2C(=O)OC[C@H]2C(F)F)CN1 [Compound 15, (S)-4-(difluoromethyl)-3-(((2R,5R)-1-(2-(7-(4-fluorobenzyl)-2,3-dihydro-1H-pyrido[2,3-b][1,4]oxazin-1-yl)-2-oxoethyl)-5-methylpiperazin-2-yl)methyl)oxazolidin-2-one] | 6.9 nM | 196 nM | 3.4 nM
18 | CC(C)C(=O)Nc1nc2c(cc1Cc1ccc(F)cc1)N(C(=O)CN1C[C@@H](C)NC[C@@H]1CN1[C@H](C)COC[C@H]1C)[C@@H](C)CO2 [Compound 118, N—((S)-1-(2-((2R,5R)-2-(((3R,5R)-3,5-dimethylmorpholino)methyl)-5-methylpiperazin-1-yl)acetyl)-7-(4-fluorobenzyl)-2-methyl-2,3-dihydro-1H-pyrido[2,3-b][1,4]oxazin-6-yl)isobutyramide] | 0.19 nM | 4.8 nM | 0.16 nM
19 | CC[C@H]1COc2ncc(Cc3ccc(F)cc3)cc2N1C(=O)CN1C[C@@H](C)NC[C@@H]1CN1CCOC[C@H]1C [Compound 28, 1-((S)-2-ethyl-7-(4-fluorobenzyl)-2,3-dihydro-1H-pyrido[2,3-b][1,4]oxazin-1-yl)-2-((2R,5R)-5-methyl-2-(((R)-3-methylmorpholino)methyl)piperazin-1-yl)ethan-1-one] | 0.62 nM | 14 nM | 0.26 nM
20 | CC(C)[C@H]1COc2ncc(Cc3ccc(F)cc3)cc2N1C(=O)CN1C[C@@H](C)NC[C@@H]1CN1[C@H](C)COC[C@H]1C [Compound 46, 2-((2R,5R)-2-(((3R,5R)-3,5-dimethylmorpholino)methyl)-5-methylpiperazin-1-yl)-1-((S)-7-(4-fluorobenzyl)-2-isopropyl-2,3-dihydro-1H-pyrido[2,3-b][1,4]oxazin-1-yl)ethan-1-one] | 0.47 nM | 63 nM | 0.24 nM
21 | C[C@@H]1CN(CC(=O)N2c3cc(Cc4ccc(F)cc4)c(CO)nc3OC[C@@H]2C)[C@@H](CN2CCOC[C@H]2C(F)(F)F)CN1 [Compound 91A, 1-((S)-7-(4-fluorobenzyl)-6-(hydroxymethyl)-2-methyl-2,3-dihydro-1H-pyrido[2,3-b][1,4]oxazin-1-yl)-2-((2R,5R)-5-methyl-2-(((S)-3-(trifluoromethyl)morpholino)methyl)piperazin-1-yl)ethan-1-one] | 1.25 nM | 30 nM | 0.72 nM
